10 compounds from patent US20250120989A1, “BRIDGED TRICYCLIC CARBAMOYLPYRIDONE COMPOUNDS AND USES THEREOF” (priority 2023, published 2025) can be followed below.

For one data set, the system named is HIV-1 (IIIB). As to the kind of experiment: microbe, parasite or virus in culture. Format: cell-based. The settings on record: Human immunodeficiency virus 1, MT4, 120 h; HIV-1 (IIIB) replication in MT-4 cells, 5 days, Cell Titer Glo; read-out: MT4 EC50. On the technique in general: In ATP-based viability assays light output follows the ATP content of the culture.

The nature of another data set: in vitro. The settings on record: human, uninfected MT-4 cells.
Another data set can be described thus: physchem. The note with it: FaSSIF, 23 °C, thermodynamic from solid.

pEC50: −log10 of the molar value. In brackets after ≈: the same amount, converted by molar mass.

Turning to `CC1=NO[C@@]2(CC[C@H](C)N3C[C@H]2n2cc(C(=O)NCc4ccc(F)cc4F)c(=O)c(OCOC(=O)OCCOP(=O)(O)O)c2C3=O)C1` [Compound 4, (((3′S,5S,7′R)-10′-((2,4-difluorobenzyl)carbamoyl)-3,3′-dimethyl-1′,11′-dioxo-1′,4′,5′,11′-tetrahydro-3′H,4H,7′H-spiro[isoxazole-5,6′-[2,7]methanopyrido[1,2-a][1,4]diazonin]-12′-yl)oxy)methyl (2-(phosphonooxy)ethyl) carbonate], in the data set with HIV-1 (IIIB), the pEC50 was 9.02. In the data set “in vitro”, this compound gave a CC50 at 5 days of 11.6 µM. Moreover, the thermodynamic solubility at 24 h in “physchem” was determined as 4300 µg/mL (≈ 6.28 mM).
The corresponding values for `COC1=NO[C@@]2(CC[C@H](C)N3C[C@H]2n2cc(C(=O)NCc4ccc(F)cc4F)c(=O)c(OC(=O)OC[C@H](C)OP(=O)(O)O)c2C3=O)C1` [Compound 38, (3′S,5S,7′R)-10′-((2,4-difluorobenzyl)carbamoyl)-3-methoxy-3′-methyl-1′,11′-dioxo-1′,4′,5′,11′-tetrahydro-3′H,4H,7′H-spiro[isoxazole-5,6′-[2,7]methanopyrido[1,2-a][1,4]diazonin]-12′-yl ((S)-2-(phosphonooxy)propyl) carbonate] are 8.84, 17.6 µM and 2460 µg/mL (≈ 3.59 mM).
The corresponding values for `COC1=NO[C@@]2(CC[C@H](C)N3C[C@H]2n2cc(C(=O)NCc4ccc(F)cc4F)c(=O)c(OCOC(=O)OC(C)(C)COP(=O)(O)O)c2C3=O)C1` [Compound 63, (((3′S,5S,7′R)-10′-((2,4-difluorobenzyl)carbamoyl)-3-methoxy-3′-methyl-1′,11′-dioxo-1′,4′,5′,11′-tetrahydro-3′H,4H,7′H-spiro[isoxazole-5,6′-[2,7]methanopyrido[1,2-a][1,4]diazonin]-12′-yl)oxy)methyl (2-methyl-1-(phosphonooxy)propan-2-yl) carbonate] are 8.29, 35.4 µM and 4620 µg/mL (≈ 6.35 mM).
`CC1=NO[C@@]2(CC[C@H](C)N3C[C@H]2n2cc(C(=O)NCc4ccc(F)cc4F)c(=O)c(OCOC(=O)C(C)(C)CCN(CC(=O)O)C(=O)OCOP(=O)(O)O)c2C3=O)C1` [Compound 43, N-(4-((((3′S,5S,7′R)-10′-((2,4-difluorobenzyl)carbamoyl)-3,3′-dimethyl-1′,11′-dioxo-1′,4′,5′,11′-tetrahydro-3′H,4H,7′H-spiro[isoxazole-5,6′-[2,7]methanopyrido[1,2-a][1,4]diazonin]-12′-yl)oxy)methoxy)-3,3-dimethyl-4-oxobutyl)-N-(((phosphonooxy)methoxy)carbonyl)glycine]: the pEC50 in the data set with HIV-1 (IIIB) is 8.75. It took 8.46 µM to reach half-maximal cytotoxicity in “in vitro” (CC50 at 5 days). Moreover, the solubility (thermodynamic) at 24 h in the data set “physchem” amounted to 5420 µg/mL (≈ 6.43 mM).
With `CC1=NO[C@@]2(CC[C@H](C)N3C[C@H]2n2cc(C(=O)NCc4ccc(F)cc4F)c(=O)c(OCOC(=O)OC[C@H](C)COP(=O)(O)O)c2C3=O)C1` [Compound 69, (((3′S,5S,7′R)-10′-((2,4-difluorobenzyl)carbamoyl)-3,3′-dimethyl-1′,11′-dioxo-1′,4′,5′,11′-tetrahydro-3′H,4H,7′H-spiro[isoxazole-5,6′-[2,7]methanopyrido[1,2-a][1,4]diazonin]-12′-yl)oxy)methyl ((S)-2-methyl-3-(phosphonooxy)propyl) carbonate], in the data set on HIV-1 (IIIB), the pEC50 is 8.54. In the data set “in vitro”, the CC50 at 5 days turned out to be 17.3 µM. In the data set “physchem”, this compound showed a solubility (thermodynamic) at 24 h of 4600 µg/mL (≈ 6.46 mM).
In the same order, the values of `CC1=NO[C@@]2(CC[C@H](C)N3C[C@H]2n2cc(C(=O)NCc4ccc(F)cc4F)c(=O)c(OCOC(=O)CC(C)(C)COP(=O)(O)O)c2C3=O)C1` [Compound 41, (((3′S,5S,7′R)-10′-((2,4-difluorobenzyl)carbamoyl)-3,3′-dimethyl-1′,11′-dioxo-1′,4′,5′,11′-tetrahydro-3′H,4H,7′H-spiro[isoxazole-5,6′-[2,7]methanopyrido[1,2-a][1,4]diazonin]-12′-yl)oxy)methyl 3,3-dimethyl-4-(phosphonooxy)butanoate] are 8.51, 44.3 µM and 5600 µg/mL (≈ 7.87 mM).
With `CC1=NO[C@@]2(CC[C@H](C)N3C[C@H]2n2cc(C(=O)NCc4ccc(F)cc4F)c(=O)c(OCOC(=O)CCCOP(=O)(O)O)c2C3=O)C1` [Compound 40, (((3′S,5S,7′R)-10′-((2,4-difluorobenzyl)carbamoyl)-3,3′-dimethyl-1′,11′-dioxo-1′,4′,5′,11′-tetrahydro-3′H,4H,7′H-spiro[isoxazole-5,6′-[2,7]methanopyrido[1,2-a][1,4]diazonin]-12′-yl)oxy)methyl 4-(phosphonooxy)butanoate], the pEC50 in the data set with HIV-1 (IIIB) was 8.90. Besides, it took 12.6 µM to reach half-maximal cytotoxicity in “in vitro” (CC50 at 5 days). In “physchem”, this compound displayed a solubility (thermodynamic) at 24 h of 5340 µg/mL (≈ 7.83 mM).
In the same order, the values of `CC1=NO[C@@]2(CC[C@H](C)N3C[C@H]2n2cc(C(=O)NCc4ccc(F)cc4F)c(=O)c(OCOC(=O)OCC(C)(C)CN(CC(=O)O)C(=O)OCOP(=O)(O)O)c2C3=O)C1` [Compound 37, N-(3-((((((3′S,5S,7′R)-10′-((2,4-difluorobenzyl)carbamoyl)-3,3′-dimethyl-1′,11′-dioxo-1′,4′,5′,11′-tetrahydro-3′H,4H,7′H-spiro[isoxazole-5,6′-[2,7]methanopyrido[1,2-a][1,4]diazonin]-12′-yl)oxy)methoxy)carbonyl)oxy)-2,2-dimethylpropyl)-N-(((phosphonooxy)methoxy)carbonyl)glycine] are 8.83, 11.1 µM and 4980 µg/mL (≈ 5.81 mM).
`COC1=NO[C@@]2(CC[C@H](C)N3C[C@H]2n2cc(C(=O)NCc4ccc(F)cc4F)c(=O)c(OCOC(=O)OC[C@H](C)COP(=O)(O)O)c2C3=O)C1` [Compound 68, (((3′S,5S,7′R)-10′-((2,4-difluorobenzyl)carbamoyl)-3-methoxy-3′-methyl-1′,11′-dioxo-1′,4′,5′,11′-tetrahydro-3′H,4H,7′H-spiro[isoxazole-5,6′-[2,7]methanopyrido[1,2-a][1,4]diazonin]-12′-yl)oxy)methyl ((S)-2-methyl-3-(phosphonooxy)propyl) carbonate]: in the data set with HIV-1 (IIIB), the pEC50 was 8.68. Also, it took 16.1 µM to reach half-maximal cytotoxicity in “in vitro” (CC50 at 5 days). The compound also displayed a thermodynamic solubility at 24 h in “physchem” of 4620 µg/mL (≈ 6.35 mM).
In the data set “in vitro”, `CC1=NO[C@@]2(CC[C@H](C)N3C[C@H]2n2cc(C(=O)NCc4ccc(F)cc4F)c(=O)c(OCOC(=O)OCC[N+](C)(C)C)c2C3=O)C1` [Compound 15, 2-((((((3′S,5S,7′R)-10′-((2,4-difluorobenzyl)carbamoyl)-3,3′-dimethyl-1′,11′-dioxo-1′,4′,5′,11′-tetrahydro-3′H,4H,7′H-spiro[isoxazole-5,6′-[2,7]methanopyrido[1,2-a][1,4]diazonin]-12′-yl)oxy)methoxy)carbonyl)oxy)-N,N,Ntrimethylethan-1-aminium trifluoroacetic acid] came in with a cytotoxic concentration (CC50) at 5 days of 17.3 µM. Besides, the solubility (thermodynamic) at 24 h in “physchem” came to 4370 µg/mL.

Broadly, the pEC50 is the EC50 on a negative log10 scale, so that one unit is a factor of ten. One may read the CC50 as the concentration at which the toxic effect on the cells reaches its halfway point. Read a high CC50 as better tolerance by the cells. Broadly, the thermodynamic solubility is solubility found after equilibrating the solid with the medium.
